From US20100204128A1, “NOVEL PEPTIDES” (SANARE INVESTMENT AS, priority 2007, published 2010)
Several values for one entry are separate records, joined by “and”; a condition that tells them apart may be missing. Equal values may be shown once.

Key:
Type in all cases: cell-based
Settings in all cases: for fluorescent readings: 24 hours, duplicate wells
TMX2-28 cells = experiment: AlmarBlue fluorescence cell growth test, TMX2-28 cells
Experimental: With that, the 5×10^−3M mixture contains about 0.42×10^−3M of each peptide. Furthermore, mixtures containing equal volumes of peptides SEQ ID NO:2-SEQ ID NO:7, SEQ ID NO:10 and SEQ ID NO:11 were also prepared (equal volumes of said re-feed media) to yield the following final six concentrations: […] With that, the 5×10^−3M mixture contains about […].
(§1) MCF-7 and T47D cells were seeded into 96-well plates at a density of 10,000 cells per well in 90 μL of appropriate culture medium. TMX2-28 cells were seeded into 96-well plates at a density of 5,000 cells per well in 90 μL of appropriate culture medium. Plates were placed in a 37° C., 5% CO2 incubator and cells were allowed to attach to the bottom of the well for 24 hours after which 10 μL of the appropriate refeed medium was added. Each concentration was tested in duplicate in each cell line. […] Cells were then incubated for 24 hours. Subsequently 10 μL of AlmarBlue (Biosource) was added to each well. After three hours, the fluorescence was detected using a Packard Instrument Plate Reader with 535/20 excitation and 590/20 emission filters.

T47D cells = experiment: AlmarBlue fluorescence cell growth test, T47D cells
Experimental: (§2) Re-feed media were prepared to yield the following final six concentrations of each of the 12 peptides: 5×10^−3, 5×10^−4, 5×10^−5, 5×10^−6, 5×10^−7, and 5×10^−8M. […] With that, the 5×10^−3M mixture contains about 0.42×10^−3M of each peptide. […] With that, the 5×10^−3M mixture contains about 0.42×10^−3M of each of said 8 peptides.
as §1

MCF-7 cells = experiment: AlmarBlue fluorescence cell growth test, MCF-7 cells
Experimental: as §2, §1

[1] = 5 × 10^−4 M (mixtures: total concentration), decrease vs DC5 = reduced cell growth
[2] = 5 × 10^−5 M (mixtures: total concentration)
[3] = 5 × 10^−6 M (mixtures: total concentration)
[4] = 5 × 10^−7 M (mixtures: total concentration)
[5] = 5 × 10^−8 M (mixtures: total concentration)
[6] = 5 × 10^−9 M (mixtures: total concentration)

Row | Compound | fluorescent readings (TMX2-28 cells; [1]) | fluorescent readings (TMX2-28 cells; [2]) | fluorescent readings (TMX2-28 cells; [3]) | fluorescent readings (TMX2-28 cells; [4]) | fluorescent readings (TMX2-28 cells; [5]) | fluorescent readings (TMX2-28 cells; [6]) | fluorescent readings (MCF-7 cells; [1]) | fluorescent readings (MCF-7 cells; [2]) | fluorescent readings (MCF-7 cells; [3]) | fluorescent readings (MCF-7 cells; [4]) | fluorescent readings (MCF-7 cells; [5]) | fluorescent readings (MCF-7 cells; [6]) | fluorescent readings (T47D cells; [1]) | fluorescent readings (T47D cells; [2]) | fluorescent readings (T47D cells; [3]) | fluorescent readings (T47D cells; [4]) | fluorescent readings (T47D cells; [5]) | fluorescent readings (T47D cells; [6]) | also measured
1 | c1ccc2c(c1)cc1ccc3cccc4ccc2c1c34 [BaP, Benzo[a]pyrene, reference compound] | – | – | – | – | – | – | – | – | – | – | – | – | – | – | – | – | – | – | effect on proliferation (in words) (TMX2-28 cells; 24 hours incubation): insufficient to decrease the proliferation; effect on proliferation (in words) (T47D cells; 24 hours incubation): insufficient to decrease the proliferation
2 | CC/C(=C(\c1ccccc1)c1ccc(OCCN(C)C)cc1)c1ccccc1 [Tamoxifen, reference compound] | – | – | – | – | – | – | – | – | – | – | – | – | – | – | – | – | – | – | effect on proliferation (in words) (MCF-7 cells; 24 hours incubation): insufficient to decrease the proliferation
3 | SEQIDNO1: synthesised peptide identified in the 10 kDa blood fraction after acupuncture; sequence not printed in the text (ASPVAPLDPLLKYGRGQPVSSASGTTTDLGQ; Derived from human blood sample) | 74129 and 72743 | 73649 and 71774 | 72975 and 71640 | 74503 and 75697 | 75445 and 77164 | 71409 and 71588 | 69131 and 67176 | 65474 and 66009 | 65860 and 64140 | 62613 and 62686 | 63693 and 62463 | 62279 and 60719 | 65814 and 66151 | 64794 and 65757 | 63241 and 63091 | 63036 and 62709 | 62633 and 62689 | 55767 and 59593 | –
4 | SEQIDNO2: synthesised peptide identified in the 10 kDa blood fraction after acupuncture; sequence not printed in the text (KVGAHAGEYGAEALER; Derived from human blood sample) | 70121 and 70743 | 70162 and 68517 | 69083 and 71861 | 72557 and 73134 | 72061 and 73603 | 68910 and 72372 | 68630 and 65876 | 66492 and 66554 | 65617 and 65531 | 63699 and 63627 | 63539 and 63477 | 63298 and 62132 | 66780 and 68474 | 67257 and 66607 | 63525 and 67453 | 64064 and 66021 | 62463 and 63876 | 57744 and 60399 | –
5 | SEQIDNO3: synthesised peptide identified in the 10 kDa blood fraction after acupuncture; sequence not printed in the text (KTFTVTEGSMAGGAWGRL; Derived from human blood sample) | 68963 and 67344 | 69237 and 66454 | 71007 and 67496 | 72558 and 69648 | 72686 and 69197 | 69066 and 70821 | 63831 and 65178 | 64053 and 64928 | 64217 and 64899 | 62452 and 66233 | 61563 and 63132 | 62603 and 61621 | 61359 and 61718 | 66736 and 61724 | 65079 and 58554 | 64329 and 59141 | 61766 and 61031 | 59482 and 59451 | –
6 | SEQIDNO4: synthesised peptide identified in the 10 kDa blood fraction after acupuncture; sequence not printed in the text (KFLQAKFYQLSLERP; Derived from human blood sample) | 68299 and 67310 | 67939 and 68552 | 69917 and 70618 | 70744 and 72469 | 71761 and 72585 | 70255 and 70823 | 64475 and 66716 | 63637 and 66597 | 65699 and 66767 | 64278 and 64885 | 64878 and 64702 | 61356 and 61062 | 65000 and 63427 | 66449 and 66303 | 66808 and 65677 | 65859 and 65314 | 66040 and 64619 | 57800 and 59394 | –
7 | SEQIDNO5: synthesised peptide identified in the 10 kDa blood fraction after acupuncture; sequence not printed in the text (REVQGAFLRFMACLLKGYRV; Derived from human blood sample) | 27056 and 29836 | 62564 and 67140 | 67405 and 69619 | 69438 and 69605 | 70141 and 70591 | 69376 and 67302 | 56679 and 54497 | 61089 and 62458 | 61618 and 65571 | 61677 and 66372 | 62738 and 64281 | 57537 and 60120 | 54287 and 54068 | 61500 and 65566 | 63089 and 64735 | 64043 and 64408 | 62339 and 63402 | 61350 and 61820 | –
8 | SEQIDNO6: synthesised peptide identified in the 10 kDa blood fraction after acupuncture; sequence not printed in the text (RKEGKGERE; Derived from human blood sample) | 68949 and 68566 | 70355 and 69358 | 70389 and 69887 | 71096 and 70512 | 70707 and 71208 | 62308 and 64367 | 69282 and 66723 | 69071 and 69114 | 67961 and 70454 | 66967 and 68329 | 65221 and 65987 | 60855 and 61454 | 60992 and 68394 | 57868 and 68983 | 66902 and 68862 | 65508 and 66620 | 65244 and 64730 | 61392 and 63577 | –
9 | SEQIDNO7: synthesised peptide identified in the 10 kDa blood fraction after acupuncture; sequence not printed in the text (RMSIQCDVWRSKFLASRV; Derived from human blood sample) | 58887 and 60090 | 64931 and 66366 | 68010 and 67591 | 68325 and 70586 | 67109 and 70471 | 62010 and 66328 | 64171 and 62704 | 67257 and 64433 | 66311 and 66105 | 63995 and 67019 | 65755 and 66292 | 60589 and 62763 | 62688 and 60767 | 68041 and 64777 | 66479 and 60908 | 65388 and 63864 | 64353 and 63685 | 64124 and 63134 | –
